Where two headings read alike, the source gives them in different places.
Legend:
[1] = biological target: T1, human Gcg receptor (hGcgR) (Homo sapiens, UniProt P47871); assay: [125I]-Glucagon binding, SPA with membranes of HEK293 cells expressing hGcgR; conditions: human GcgR; geometric mean (SEM, n); read-out: Binding Affinity Ki, nM (SEM, n) hGCGR
T1 construct: expressed in transfected cells; crude membranes

[2] = biological target: T2, human GLP-1 receptor (hGLP-1R) (Homo sapiens, UniProt P43220); assay: [125I]-GLP-1 binding, SPA with membranes of HEK293 cells expressing hGLP-1R; conditions: human GLP-1R; geometric mean (SEM, n); read-out: Binding Affinity Ki, nM (SEM, n) hGLP-1R
T2 construct: expressed in transfected cells; crude membranes
T2 sequence (P43220 24-463): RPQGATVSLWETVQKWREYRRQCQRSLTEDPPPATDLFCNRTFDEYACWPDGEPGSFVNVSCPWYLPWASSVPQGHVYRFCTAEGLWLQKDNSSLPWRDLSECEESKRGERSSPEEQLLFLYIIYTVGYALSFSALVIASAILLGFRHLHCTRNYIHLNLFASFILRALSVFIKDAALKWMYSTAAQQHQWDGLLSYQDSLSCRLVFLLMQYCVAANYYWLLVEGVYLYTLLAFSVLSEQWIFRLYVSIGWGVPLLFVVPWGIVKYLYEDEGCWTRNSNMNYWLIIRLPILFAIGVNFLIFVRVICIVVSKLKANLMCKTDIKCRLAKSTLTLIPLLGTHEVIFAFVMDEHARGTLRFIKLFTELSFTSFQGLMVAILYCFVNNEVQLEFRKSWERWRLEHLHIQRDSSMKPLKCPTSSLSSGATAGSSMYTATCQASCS

[3] = biological target: T3, human GIP receptor (hGIPR) (Homo sapiens, UniProt P48546); assay: [125I]-GIP binding, SPA with membranes of CHO cells expressing hGIPR; conditions: human GIPR; geometric mean (SEM, n); read-out: Binding Affinity Ki, nM (SEM, n) hGIPR
T3 construct: expressed in transfected cells; crude membranes
T3 sequence (P48546 22-466): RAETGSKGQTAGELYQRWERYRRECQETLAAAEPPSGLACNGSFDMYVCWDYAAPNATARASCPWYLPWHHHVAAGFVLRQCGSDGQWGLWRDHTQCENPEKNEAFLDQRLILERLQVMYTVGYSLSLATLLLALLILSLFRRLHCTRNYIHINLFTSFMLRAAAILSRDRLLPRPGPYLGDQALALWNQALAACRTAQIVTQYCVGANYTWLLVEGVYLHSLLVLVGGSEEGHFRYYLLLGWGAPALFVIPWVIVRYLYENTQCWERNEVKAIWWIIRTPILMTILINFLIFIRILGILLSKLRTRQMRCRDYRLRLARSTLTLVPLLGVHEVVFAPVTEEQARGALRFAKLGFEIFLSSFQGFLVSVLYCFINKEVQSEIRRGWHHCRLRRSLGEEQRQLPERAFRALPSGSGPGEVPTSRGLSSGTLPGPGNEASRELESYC

hGIPR = biological target: T4, hGIPR (Homo sapiens, UniProt P48546); assay: Functional cAMP formation (HTRF) in HEK-293 clonal cells expressing hGIPR, 0.1% bovine casein, without or with 1.0% human serum albumin; assay type: cell-based; conditions: 37° C.; for Emax: HEK293, cAMP, 0.1% bovine casein and 1.0% human serum albumin, percent of maximal response to GIP(1-42)NH2, read-out: hGIPR Emax, % ± SEM; for EC50: cAMP, 0.1% bovine casein (no human serum albumin), geometric mean, read-out: hGIPR EC50, nM (SEM, n)
T4 construct: expressed in transfected cells
T4 sequence (P48546 22-466): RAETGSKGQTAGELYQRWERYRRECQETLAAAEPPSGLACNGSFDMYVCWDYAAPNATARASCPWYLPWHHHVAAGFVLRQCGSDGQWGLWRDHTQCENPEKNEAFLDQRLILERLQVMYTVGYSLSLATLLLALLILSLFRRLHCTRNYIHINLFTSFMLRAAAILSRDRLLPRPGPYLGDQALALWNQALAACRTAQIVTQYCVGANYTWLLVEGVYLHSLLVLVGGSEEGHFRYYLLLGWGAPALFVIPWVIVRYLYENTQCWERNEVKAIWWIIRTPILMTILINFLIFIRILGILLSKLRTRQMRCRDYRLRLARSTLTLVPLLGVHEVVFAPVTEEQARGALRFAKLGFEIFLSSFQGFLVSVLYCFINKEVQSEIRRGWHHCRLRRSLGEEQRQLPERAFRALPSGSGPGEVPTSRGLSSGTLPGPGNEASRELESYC
How it was run: (§1)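 Cells were stimulated with peptide for 30 min at 37° C, then intracellular cAMP was measured by competitive HTRF (665/620 nm ratio) and converted to nM using a cAMP standard curve. Relative EC50 and Emax came from four-parameter logistic fits of percent maximal response against peptide concentration.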

hGCGR = biological target: T5, hGCGR (Homo sapiens, UniProt P47871); assay: Functional cAMP formation (HTRF) in HEK-293 clonal cells expressing hGCGR, 0.1% bovine casein, without or with 1.0% human serum albumin; assay type: cell-based; conditions: cAMP, 37° C., read-out: hGCGR EC50, nM (SEM, n)
T5 construct: expressed in transfected cells
T5 sequence (P47871 26-477): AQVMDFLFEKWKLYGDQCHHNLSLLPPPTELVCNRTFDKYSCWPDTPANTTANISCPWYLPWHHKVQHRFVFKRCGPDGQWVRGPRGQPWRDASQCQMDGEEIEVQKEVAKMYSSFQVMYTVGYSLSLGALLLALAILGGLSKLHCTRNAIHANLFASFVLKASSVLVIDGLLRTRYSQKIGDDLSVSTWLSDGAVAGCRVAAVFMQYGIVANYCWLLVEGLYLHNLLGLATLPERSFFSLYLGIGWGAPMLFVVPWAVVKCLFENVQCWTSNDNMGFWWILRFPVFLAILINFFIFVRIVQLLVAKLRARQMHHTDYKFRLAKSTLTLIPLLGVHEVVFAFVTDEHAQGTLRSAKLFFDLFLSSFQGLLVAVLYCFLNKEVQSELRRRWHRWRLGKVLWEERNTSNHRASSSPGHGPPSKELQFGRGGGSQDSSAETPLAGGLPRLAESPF
How it was run: as §1

hGLP-1R = hGLP-1R (Homo sapiens, UniProt P43220); assay: Functional cAMP formation (HTRF) in HEK-293 clonal cells expressing hGLP-1R, 0.1% bovine casein, without or with 1.0% human serum albumin; assay type: cell-based; design: expressed in transfected cells; conditions: 37° C.; for EC50: cAMP, 0.1% bovine casein (no human serum albumin), geometric mean, read-out: hGLP-1R EC50, nM (SEM, n)
Chain of hGLP-1R (P43220 24-463): as the sequence (P43220 24-463) above
How it was run: as §1

[4] = 0.1% bovine casein (no human serum albumin), geometric mean
[5] = 0.1% bovine casein and 1.0% human serum albumin, geometric mean (SEM, n)

T1 sequence (P47871 26-477): as the sequence (P47871 26-477) above

SMILES | Ki [1] [nM] | Ki [2] [nM] | Ki [3] [nM] | Emax (hGIPR) [%] | EC50 (hGIPR) [nM] | EC50 (hGCGR; [4]) [nM] | EC50 (hGCGR; [5]) [nM] | EC50 (hGLP-1R) [nM] | Emax (hGLP-1R; HEK293, cAMP, 0.1% bovine casein and 1.0% human serum albumin, percent of maximal response to GLP-1(7-36)NH2, read-out: hGLP-1R Emax, % ± SEM) [%]
CCCCCCCCCCCC(=O)N[C@@H](CCC(=O)NCCOCCOCC(=O)NCCOCCOCC(=O)NCCCC[C@H](NC(=O)[C@H](CCCN)NC(=O)[C@H](CC(=O)O)NC(=O)[C@H](CC(C)C)NC(=O)[C@](C)(CC(C)C)NC(=O)[C@@H](NC(=O)C(C)(C)NC(=O)[C@H](Cc1ccncc1)NC(=O)[C@H](CC(=O)O)NC(=O)[C@H](CO)NC(=O)[C@@H](NC(=O)[C@](C)(Cc1ccccc1F)NC(=O)[C@@H](NC(=O)CNC(=O)[C@H](CCC(=O)O)NC(=O)C(C)(C)NC(=O)[C@@H](N)Cc1ccc(O)cc1)[C@@H](C)O)[C@@H](C)O)[C@@H](C)CC)C(=O)N[C@@H](C)C(=O)N[C@@H](CCC(N)=O)C(=O)NC(C)(C)C(=O)NCC(=O)N[C@@H](Cc1ccccc1)C(=O)N[C@H](C(=O)N[C@H](CCC(=O)O)C(=O)N[C@@](C)(Cc1ccc(O)cc1)C(=O)N[C@@H](CC(C)C)C(=O)N[C@H](C(=O)N[C@@H](CCCCNC(=O)COCCOCCNC(=O)COCCOCCNC(=O)CC[C@H](NC(=O)CCCCCCCCCCC)C(=O)O)C(=O)NCC(=O)NCC(=O)N1CCC[C@H]1C(=O)N[C@@H](CO)C(=O)N[C@@H](CO)C(=O)NCC(=O)N[C@@H](C)C(=O)N1CCC[C@H]1C(=O)N1CCC[C@H]1C(=O)N1CCC[C@H]1C(=O)N[C@@H](CO)C(N)=O)[C@@H](C)CC)[C@@H](C)CC)C(=O)O [Example 494] | 135 | 0.188 | 0.0197 | 92.6 | 0.0123 | > 9950 | > 9950 | 0.15 | –
CC[C@H](C)[C@H](NC(=O)[C@H](CC(C)C)NC(=O)[C@](C)(Cc1ccc(O)cc1)NC(=O)[C@H](CCCCNC(=O)COCCOCCNC(=O)COCCOCCNC(=O)COCCOCCNC(=O)CC[C@H](NC(=O)CCCCCCCCCCCCC(=O)O)C(=O)O)NC(=O)[C@@H](NC(=O)[C@H](Cc1ccccc1)NC(=O)[C@H](CCCN)NC(=O)C(C)(C)NC(=O)[C@H](CCC(N)=O)NC(=O)[C@H](C)NC(=O)[C@H](CCC(N)=O)NC(=O)[C@H](CCCN)NC(=O)[C@H](CC(=O)O)NC(=O)[C@H](CC(C)C)NC(=O)[C@](C)(CC(C)C)NC(=O)[C@@H](NC(=O)C(C)(C)NC(=O)[C@H](Cc1ccc(O)cc1)NC(=O)[C@H](CC(=O)O)NC(=O)[C@H](CO)NC(=O)[C@@H](NC(=O)[C@](C)(Cc1ccccc1F)NC(=O)[C@@H](NC(=O)CNC(=O)[C@H](CCC(=O)O)NC(=O)C(C)(C)NC(=O)[C@@H](N)Cc1ccc(O)cc1)[C@@H](C)O)[C@@H](C)O)[C@@H](C)CC)[C@@H](C)CC)C(=O)N[C@@H](CCCCNC(=O)COCCOCCNC(=O)COCCOCCNC(=O)COCCOCCNC(=O)CC[C@H](NC(=O)CCCCCCCCCCCCC(=O)O)C(=O)O)C(=O)NCC(=O)NCC(=O)N1CCC[C@H]1C(=O)N[C@@H](CO)C(=O)N[C@@H](CO)C(=O)NCC(=O)N[C@@H](C)C(=O)N1CCC[C@H]1C(=O)N1CCC[C@H]1C(=O)N1CCC[C@H]1C(=O)N[C@@H](CO)C(N)=O [Example 479] | 213 | 0.246 | 0.0249 | 89.5 | 0.00718 | > 9950 | > 9950 | 0.115 | 95.3

Source: US20230265151A1, “GIP/GLP1 CO-AGONIST COMPOUNDS” (priority 2020, published 2023)
